From PubChem BioAssay (NCI)
Where “and” joins values, the source holds several entries; their conditions need not be identical. Equal values may be shown once.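 Exposure lasted 48 hours, with cells grown in 96-well plates and compounds tested at five concentrations. The concentration for 50% growth inhibition is given as GI50. TGI marks complete inhibition of growth.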

Key:
Assay in all cases: growth of human tumour cells (NCI), 48 h
UACC-257 melanoma = tested on: UACC-257 melanoma
HOP-92 NSCLC = tested on: HOP-92 NSCLC
HOP-18 NSCLC = tested on: HOP-18 NSCLC
SR leukemia = tested on: SR leukemia
HOP-62 NSCLC = tested on: HOP-62 NSCLC
LOX IMVI melanoma = tested on: LOX IMVI melanoma
A549 NSCLC = tested on: A549 NSCLC
XF 498 CNS = tested on: XF 498 CNS
DMS 114 small cell lung = tested on: DMS 114 small cell lung
MDA-MB-435 = tested on: MDA-MB-435

SMILES | TGI (UACC-257 melanoma) [µM] | TGI (HOP-92 NSCLC) | TGI (HOP-18 NSCLC) [µM] | TGI (SR leukemia) | TGI (HOP-62 NSCLC) [µM] | TGI (LOX IMVI melanoma) | TGI (A549 NSCLC) [µM] | TGI (XF 498 CNS) [µM] | TGI (DMS 114 small cell lung) [µM] | GI50 (DMS 114 small cell lung) [µM] | GI50 (UACC-257 melanoma) [µM] | GI50 (HOP-18 NSCLC) [µM] | GI50 (HOP-62 NSCLC) [µM] | GI50 (LOX IMVI melanoma) | GI50 (A549 NSCLC) [µM] | GI50 (XF 498 CNS) [µM] | GI50 (MDA-MB-435) | TGI (MDA-MB-435) [µM] | GI50 (HOP-92 NSCLC) | GI50 (SR leukemia)
Cl/C(N=Nc1ccccc1)=N/Nc1ccccc1 | > 100 | > 100 µM | > 100 | > 100 µM | > 100 | > 100 µM | > 100 | > 100 |  |  |  |  |  |  |  |  |  |  |  | 
COc1ccc(-c2cc(C(=O)Nc3cc(C(F)(F)F)cc(C(F)(F)F)c3)c3ccccc3n2)cc1 | 51.4 |  | 51.8 | 38.5 µM | 30.3 | 29.1 µM | 17.5 | 22.5 | 21.1 |  |  |  |  |  |  |  |  |  |  | 
[O-]c1ccccc1C=Nc1ccc2c(c1)CCC2.[O-]c1ccccc1C=Nc1ccc2c(c1)CCC2.[O]=[U+2]=[O] | > 100 |  | > 100 |  | > 100 | > 100 µM | > 100 | > 100 | > 100 | 7.05 | > 100 | 8.74 | > 100 | 9.92 µM | > 100 | > 100 |  |  |  | 
CN(C)/C=N\c1ccnc(=O)[nH]1 | > 100 | > 100 µM | > 100 |  | > 100 | > 100 µM | > 100 | > 100 | > 100 |  |  |  |  |  |  |  |  |  |  | 
Cc1cc(C)c2c(n1)sc1c(N)ncnc12 | > 25 | > 14 µM |  | > 25 µM | > 25 | > 25 µM | > 25 |  |  |  | > 25 |  | > 25 | > 25 µM | > 25 |  | > 25 µM | > 25 | 1.43 µM | 9.43 µM
COc1ccc(OC(C(=O)O)C(C)C)c2c1CCCC2=O (stereo unspecified) | > 100 |  | > 100 |  | > 100 | > 100 µM | > 100 | > 100 | > 100 |  |  |  |  |  |  |  |  |  |  | 
Cc1ccc2nc(-c3ccc(OCC(=O)N=Nc4c(O)[nH]c5ccccc45)cc3)[nH]c2c1 | > 100 | 18.2 µM |  | 3.76 µM | 45.4 | 3.52 µM | 6.32 |  |  |  | 29.8 |  | 19 | 1.83 µM | 2.38 |  | 1.95 µM | 3.88 | 2.79 µM | 0.499 µM
O=C(/C=C/c1ccc(O)c(O)c1)NCc1c[nH]c2ccccc12 | > 100 | > 100 µM |  | 37 µM | > 100 | > 100 µM | > 100 |  |  |  | > 100 |  | 44.7 | 60 µM | > 100 |  | 41.9 µM | > 100 | > 100 µM | 10 µM
O=[N+]([O-])c1nccn1CC(O)CN1CCCCC1 (stereo unspecified) | > 100 | > 100 µM |  | > 100 µM | > 100 | > 100 µM | > 100 |  |  |  |  |  |  |  |  |  |  | > 100 |  | 
Cc1ccc(S(=O)(=O)N=NC=C2c3ccccc3N(O)c3ccccc32)cc1 | 23.7 | 19.5 µM | 20.8 |  | 18.8 | 2.76 µM | 20 |  | 10.8 |  |  |  |  |  |  |  |  |  |  | 
O=C(C#Cc1ccccc1)N1c2ccccc2CC1c1c[nH]c2ccccc12 (stereo unspecified) | 42 | 32.5 µM |  | 45.3 µM | 26.9 | 19.7 µM | 49.1 |  | 28.8 |  |  |  |  |  |  |  |  |  |  | 
Cc1c2c(cc3c1C(=O)C(=O)C1=C3OC[C@@H]1C)C(C)(C)CCC2 | 28.4 | 61.2 µM | 32.3 | 50.2 µM | 36.4 | 20.5 µM | 26.8 | 55.7 | 31.9 |  |  |  |  |  |  |  |  |  |  | 
Cc1nc2ccc(Br)cc2c(=O)n1-c1ccc(NC2OCC(O)C(O)C2O)cc1 (stereo unspecified) | > 100 | 64.2 µM and > 100 µM |  | 59.7 µM and > 100 µM | > 100 | 33.8 µM and > 100 µM | > 100 |  |  |  | > 100 |  |  | 15.3 µM and > 100 µM |  |  | 36 µM and > 100 µM | > 100 | 22.4 µM and > 100 µM | 25 µM and 61 µM
O=C1C(=O)N(c2ccc(Cl)cc2)C(=O)C(=O)C1c1nc2ccccc2s1 | > 100 | > 100 µM | > 100 |  | > 100 | > 100 µM |  | > 100 | > 100 |  |  |  |  |  |  |  |  |  |  | 
C#CCNC(=O)ON1C(=O)CCC1=O | > 100 |  | > 100 |  | > 100 | > 100 µM | > 100 |  |  |  |  |  |  |  |  |  |  |  |  | 
Cc1cc(Nc2nc(C(=O)Nc3ccccc3)nc3ccccc23)n[nH]1 | > 25 | > 25 µM |  | > 25 µM | > 25 | > 25 µM | > 25 |  |  |  | > 25 |  | 14.2 | 4.47 µM | 13.9 |  | 9.67 µM | > 25 | 0.399 µM | 4.36 µM
CCCCCCCCOC(=O)c1c(C)[nH]c(/C=C2\N=C(c3ccc[nH]3)C=C2OC)c1C | 7.45 | 0.228 µM |  | 1.05 µM | 11.7 | < 0.02 µM | 13.3 |  |  |  | 0.188 |  | 0.23 | < 0.0134 µM | 0.118 |  | 0.0226 µM | 1.41 | 0.0456 µM | < 0.0169 µM
O=C1OC(c2ccccc2)=N/C1=C\c1ccc(Oc2ccc(Cl)c(Cl)c2)cc1 | > 100 | > 100 µM | > 100 | 57 µM | > 100 |  | > 100 |  | 35.6 |  |  |  |  |  |  |  |  |  |  | 
NNc1cnn(-c2ccccc2)c(=O)c1Cl | > 100 | > 100 µM | > 100 | > 100 µM | > 100 | > 100 µM | > 100 |  | > 100 |  |  |  |  |  |  |  |  |  |  | 
O=c1cccccc1NCCCCCCCNc1cccccc1=O | 45.7 | 97.8 µM |  | 89.8 µM | > 100 | > 100 µM | > 100 | 32.8 |  |  |  |  |  |  |  |  |  |  |  | 
